One assay addresses T1, TYK2 JH2 (Homo sapiens, UniProt P29597).
T1 construct: purchased DiscoverX (KINOMEscan KdELECT service); host or cells: E. coli BL21-derived (T7 phage display) or HEK-293
In words: TYK2 JH2 binding assay (KINOMEscan KdELECT competitive binding). To be noted: TYK2 JH2 domain, DiscoverX KINOMEscan KdELECT (Assay A); read-out: Biochemical TYK2_DiscoverX_JH2_BND_Kd. How it is done: Assay A: TYK2 JH2 Binding Assay
Competitive binding studies using TKY2 JH2-domain fragments were conducted by DiscoverX using the KINOMEscan (KdELECT) platform. Kinase-tagged T7 phage strains were prepared in an E. coli host derived from the BL21 strain. E. coli were grown to log-phase and infected with […] and incubated with shaking at 32° C. until lysis. The lysates were centrifuged and filtered to remove cell debris. The remaining kinases were produced in HEK-293 cells and subsequently tagged with DNA for qPCR detection. Streptavidin-coated magnetic beads were treated with biotinylated small molecule ligands for 30 minutes at room temperature to generate affinity resins for kinase assays. The liganded beads were blocked with excess biotin and washed with blocking buffer (SeaBlock (Pierce), 1% BSA, 0.05% Tween 20, 1 mM DTT) to remove unbound ligand and to reduce non-specific binding. Binding reactions were assembled by combining kinases, liganded affinity beads, and test compounds in 1× binding buffer (20% SeaBlock, 0.17×PBS, 0.05% Tween 20, 6 mM DTT). Test compounds were prepared as 111× stocks in 100% DMSO. Kds were determined using an 11-point 3-fold compound dilution series with three DMSO control points. All compounds for Kd measurements are distributed by acoustic transfer (non-contact dispensing) in 100% DMSO. The compounds were then diluted directly into the assays such that the final concentration of DMSO was 0.9%. All reactions performed in polypropylene 384-well plate. Each was a final volume of 0.02 ml. The assay plates were incubated at room temperature with shaking for 1 hour and the affinity beads were washed with wash buffer (1×PBS, 0.05% Tween 20). The beads were then re-suspended in elution buffer (1×PBS, 0.05% Tween 20, 0.5 μM non-biotinylated affinity ligand) and incubated at room temperature with shaking for 30 minutes. The kinase concentration in the eluates was measured by qPCR.

Assay [1] concerns JAK1/TYK2 pSTAT5 (Tyr694/699) in THP-1 cell line. In words: IFNa-stimulated JAK1/TYK2 pSTAT5 (Tyr694/699) inhibition cellular assay, AlphaLISA. To be noted: Homo sapiens, THP-1 cells, AlphaLISA (Assay B), read-out: Cellular_THP1_IFNa-pSTATS_TYK2. Format: cell-based. How it is done:
Assay B: JAK1/TYK2 pSTAT5 (Tyr694/699) inhibition IC50 Cellular Assays
To evaluate the inhibition effect of compounds disclosed herein against TYK2, an IFNa-stimulated JAE1/TYK2 pSTAT5 (Tyr694/699) quantification assay was conducted in the THP-1 cell line using an AlphaLISA detection method (PerkinElmer ALSU-PST5). Compounds in DMSO were serially diluted in a 96-well plate (10 mM starting concentration, 6-fold dilutions, 8 concentrations total) prior to dispensing of 8 nL into a 384-well plate using an I.DOT non-contact liquid handler (Dispendix). Cells were collected via centrifugation at 300 ref for 5 min and resuspended in Hanks' Balanced Salt Solution (Gibco 14175-079), and 6 μl containing 2e4 cells was dispensed into each well of the 384-well plate containing test compounds or DMSO alone (final concentrations: 10000, 1666.67, 277.78, 46.30, 7.72, 1.29, 0.21 and 0.04 nM). Cells were then incubated for 1 h at 37° C. with 5% CO2 prior to the addition of 2 μL IFNa (100 ng/mL; PBL Assay Science 11175-1). Following an additional 30 min incubation at 37° C. with 5% CO2, 2 μL of 5× lysis buffer was added to each well using the I.DOT […]. Plates were sealed and incubated at RT for 10 min on a plate shaker set to 400 RPM. Cell lysates were then frozen at −80° C. before subsequent detection of pSTAT5 by AlphaLISA. At the time of the detection assay, cell lysates were thawed for 5 min at room temperature and then on a plate shaker set to 400 RPM for an additional 10 min. Following the manufacturer recommended protocol (Perkin Elmer), 5 μL of acceptor bead master mix was added to each well; plates were then resealed and incubated for 2 min at RT on a plate shaker (400 rpm) prior to an additional 2-h incubation without agitation (protected from light). Donor bead master mix, 5 uL per well, was then added to each well before 2 min of shaking (RT, 400 rpm) and 2-h incubation (RT, no shaking, protected from light). Levels of pSTAT5 protein were then measured as fluorescent signal at 615 nm with an EnVision multimode plate reader (Perkin Elmer). IC50 values were calculated in Dotmatics using the four-parameter logistic curve regression model with bottom fixed to 0 and Hill Slope fixed to −1.
(In general: In Alpha technology, singlet oxygen from a donor bead excites a nearby acceptor bead.)

Where [2] appears, read: IFNa-stimulated pSTAT5 (Tyr694/699).

Data on 17 molecules can be found in patent US20240025906A1 (NEURON23, INC., priority 2022, published 2024).

Where two headings read alike, the source gives them in different places.

T1 sequence (P29597 589-875 limits assumed): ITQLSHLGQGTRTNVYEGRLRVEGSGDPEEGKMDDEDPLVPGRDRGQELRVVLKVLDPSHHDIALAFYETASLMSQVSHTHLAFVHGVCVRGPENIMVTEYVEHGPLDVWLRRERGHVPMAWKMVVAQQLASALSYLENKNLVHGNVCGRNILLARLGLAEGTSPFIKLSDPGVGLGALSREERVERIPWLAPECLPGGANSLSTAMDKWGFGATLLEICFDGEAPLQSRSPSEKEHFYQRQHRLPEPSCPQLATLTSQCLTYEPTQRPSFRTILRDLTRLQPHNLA

For the molecule `CNc1ncc(-c2nc3cc(C4CCN([C@@]5(C)COC[C@H]5O)CC4)ccc3o2)c2cc(NC(=O)C3CC3)ncc12` (racemic) [Example 260, N-(5-(5-(1-(4-hydroxy-3-methyltetrahydrofuran-3-yl)piperidin-4-yl)benzo[d]oxazol-2-yl)-8-(methylamino)-2,7-naphthyridin-3-yl)cyclopropanecarboxamide], on TYK2 JH2, the Kd is not above 100 nM. In assay [1] (IFNa-stimulated), the IC50 was not above 500 nM.

Consider `CNc1ncc(-c2nc3cc(N4C[C@@H](C)O[C@H](C)C4)ccc3o2)c2cc(NC(=O)C3CC3)ncc12` (racemic) [Example 316, N-(5-(5-(2,6-dimethylmorpholino)benzo[d]oxazol-2-y1)-8-(methylamino)-2,7-naphthyridin-3-yl)cyclopropanecarboxamide (trans racemate)], for which, on TYK2 JH2, the Kd was not above 100 nM. For the same molecule, the IC50 in assay [1] (IFNa-stimulated) was not above 500 nM.

For `CNc1ncc(-c2nc3cc(OC)ccc3o2)c2cc(NC(=O)[C@@H]3C[C@H]3C)ncc12` (racemic) [Example 382, N-(5-(5-methoxybenzo[d]oxazol-2-yl)-8-(methylamino)-2,7-naphthyridin-3-y1)-2-methylcyclopropane-1~carboxamide], the Kd on TYK2 JH2 is not above 100 nM. Besides, in assay [1] (IFNa-stimulated), the IC50 was not above 500 nM. In the same order, the values of `CNc1ncc(-c2nc3cc(OC)ccc3o2)c2cc(NC(=O)[C@@H]3C[C@@H]3C)ncc12` (racemic) [Example 383, N-(5-(5-methoxybenzo[d]oxazol-2-yl)-8-(methylamino)-2,7-naphthyridin-3-y1)-2-methylcyclopropane-1-carboxamide] are not above 100 nM and not above 500 nM. For `CNc1ncc(-c2nc3cc(OC)ccc3o2)c2cc(NC(=O)[C@@H]3C[C@H]3C#N)ncc12` (racemic) [Example 385, 2-cyano-N-(5-(5-methoxybenzo[d]oxazol-2-y1)-8-(methylamino)-2,7-naphthyridin-3-yl)cyclopropane-1-carboxamide] the same measures were not above 100 nM and not above 500 nM.

`CCOC(=O)[C@@H]1C[C@@H]1C(=O)Nc1cc2c(-c3nc4cc(OC)ccc4o3)cnc(NC)c2cn1` (racemic) [Example 391, ethyl 2-((5-(5-methoxybenzo[d]oxazol-2-yl)-8-(methylamino)-2,7-naphthyridin-3-yl)carbamoyl)cyclopropane-1-carboxylate]: the Kd at TYK2 JH2 is not above 100 nM. The IC50 in assay [1] (IFNa-stimulated) is not above 500 nM. For `CNc1ncc(-c2nc3cc(OC)ccc3o2)c2cc(NC(=O)[C@@H]3C[C@@H]3C(F)F)ncc12` (racemic) [Example 393, 2-(difluoromethyl)-N-(5-(5-methoxybenzo[d]oxazol-2-yl)-8-(methylamino)-2,7-naphthyridin-3-yl)cyclopropane-1-carboxamide], on TYK2 JH2, the Kd is not above 100 nM. The IC50 in assay [1] (IFNa-stimulated) was not above 500 nM. For `CNc1ncc(-c2nc3cc(OC)ccc3o2)c2cc(NC(=O)[C@@H]3C[C@@H]3C(F)(F)F)ncc12` (racemic) [Example 396, N-(5-(5-methoxybenzo[d]oxazol-2-yl)-8-(methylamino)-2,7-naphthyridin-3-yl)-2-(trifluoromethyl)cyclopropane-1-carboxamide], the Kd at TYK2 JH2 was not above 100 nM. The IC50 in assay [1] (IFNa-stimulated) was not above 500 nM. Turning to `CNc1ncc(-c2nc3cc(OC)ccc3o2)c2cc(NC(=O)[C@@H]3C[C@@H]3CF)ncc12` (racemic) [Example 399, 2-(fluoromethyl)-N-(5-(5-methoxybenzo[d]oxazol-2-yl)-8-(methylamino)-2,7-naphthyridin-3-yl)cyclopropane-1-carboxamide], at TYK2 JH2, the Kd is not above 100 nM. Also, in assay [1] (IFNa-stimulated), the IC50 is not above 500 nM.

For the molecule `CNc1ncc(-c2nc3cc(OC)ccc3o2)c2cc(NC(=O)[C@H]3C[C@H]3C(C)(C)O)ncc12` (racemic) [Example 405, 2-(2-hydroxypropan-2-yl)-N-(5-(5-methoxybenzo[d]oxazol-2-yl)-8-(methylamino)-2,7-naphthyridin-3-yl)cyclopropane-1-carboxamide], the Kd at TYK2 JH2 was not above 100 nM. In addition, the IC50 in assay [1] (IFNa-stimulated) is not above 500 nM.

As to `CNc1ncc(-c2nc3cc(OC)ccc3o2)c2cc(NC(=O)[C@H]3C[C@@H]3C(C)(C)O)ncc12` (racemic) [Example 406, 2-(2-hydroxypropan-2-yl)-N-(5-(5-methoxybenzo[d]oxazol-2-yl)-8-(methylamino)-2,7-naphthyridin-3-yl)cyclopropane-1-carboxamide], the Kd at TYK2 JH2 was not above 100 nM. In assay [1] (IFNa-stimulated), the IC50 is not above 500 nM. In the same order, the values of `CNc1ncc(-c2nc3cc(N4CCO[C@@H](C)C4)ccc3o2)c2cc(NC(=O)[C@@H]3C[C@@H]3CF)ncc12` (racemic) [Example 410, 2-(fluoromethyl)-N-(8-(methylamino)-5-(5-((S)-2-methylmorpholino)benzo[d]oxazol-2-yl)-2,7-naphthyridin-3-yl)cyclopropane-1-carboxamide] are not above 100 nM and not above 500 nM. Take `CNc1ncc(-c2nc3cc(N4CCO[C@@H](C)C4)ccc3o2)c2cc(NC(=O)[C@@H]3C[C@@H]3C(F)F)ncc12` (racemic) [Example 413, 2-(difluoromethyl)-N-(8-(methylamino)-5-(5-((S)-2-methylmorpholino)benzo[d]oxazol-2-yl)-2,7-naphthyridin-3-yl)cyclopropane-1-carboxamide]: the Kd on TYK2 JH2 is not above 100 nM. For the same molecule, in assay [1] (IFNa-stimulated), the IC50 was not above 500 nM.

With `CNc1ncc(-c2nc3cc(N4CCO[C@@H](C)C4)ccc3o2)c2cc(NC(=O)[C@H]3C[C@H]3C(C)(C)O)ncc12` (racemic) [Example 416, 2-(2-hydroxypropan-2-yl)-N-(8-(methylamino)-5-(5-((S)-2-methylmorpholino)benzo[d]oxazol-2-yl)-2,7-naphthyridin-3-yl)cyclopropane-1-carboxamide], the Kd on TYK2 JH2 was not above 100 nM. For the same molecule, the IC50 in assay [1] (IFNa-stimulated) is not above 500 nM. For `[2H]C([2H])([2H])Nc1ncc(-c2nc3ccccc3o2)c2cc(NC(=O)C3CC3F)ncc12` (racemic) [Example 433, N-(5-(benzo[d]oxazol-2-yl)-8-((methyl-d3)amino)-2,7-naphthyridin-3-yl)-2-fluorocyclopropane-1-carboxamide], the Kd on TYK2 JH2 is not above 100 nM. Moreover, the IC50 in assay [1] (IFNa-stimulated) was not above 500 nM. Consider `CNc1ncc(C#Cc2cn(C(F)F)c(C)n2)c2cc(NC(=O)[C@H]3C[C@H]3C)ncc12` [Example 1139, (1S,2R)—N-(5-((1-(difluoromethyl)-2-methyl-1H-imidazol-4-yl)ethynyl)-8-(methylamino)-2,7-naphthyridin-3-yl)-2-methylcyclopropanecarboxamide], for which the IC50 in assay [1] (setting [2]) is not above 500 nM.

For `CNc1ncc(C#Cc2cnc(C)n2C(F)F)c2cc(NC(=O)[C@H]3C[C@H]3C)ncc12` [Example 1140, (1S,2R)—N-(5-((1-(difluoromethyl)-2-methyl-1H-imidazol-5-yl)ethynyl)-8-(methylamino)-2,7-naphthyridin-3-yl)-2-methylcyclopropanecarboxamide], the IC50 in assay [1] (setting [2]) was not above 500 nM.
